Reference: publication PMC5458179, “Oxidative DNA double strand breaks and autophagy in the antitumor effect of sterically hindered platinum(II) complexes in NSCLCs” (Oncotarget, 2017)
Read-outs that look alike come from different tables or passages of the source.

How the values were obtained:
HCT-116 = experiment: MTT cytotoxicity assay; assay type: cell-based, human; details: 48 h drug exposure
Method: (§1) The results reveal that the steric hindrance plays a significant role in the cytotoxicity of complex 3.
(§2) Human cancer cell lines HepG2, SGC-7901, HCT-116, A549, NCI-H1299 and MCF-7 as well as normal liver cell line L02 were purchased from the Cell Bank of Shanghai Institute of Cell Biology. Among them, MCF-7, HepG2 cells were cultured at 37 °C in 5% CO2 with DMEM supplemented with 10% fetal bovine serum (FBS) (Hyclone, Lifescience, USA) and 1% penicillin/streptomycin (Beyotime, Nantong, China), while HCT-116, SGC-7901, A549, NCI-H1299 and L02 cells were cultured at 37 °C in 5% CO2 with RPMI-1640 supplemented with 10% FBS and 1% penicillin/streptomycin. Cells were passed every 2 days and restarted from frozen stocks upon reaching pass number 20.
(§3) In vitro cytotoxicity of the platinum compounds against human hepatocellular carcinoma (HepG-2), gastric carcinoma (SGC-7901), non-small-cell lung cancer (A549), and colorectal cancer (HCT-116) cell lines were measured by the MTT assays. Briefly, the cells were seeded in 96-well cultured plates at a density of 5000 cells/well. After overnight incubation (16 h), the cells were treated with the platinum complexes. After 48 h of incubation, 10 μL of a freshly diluted 3-(4,5-dimethyl-2-thiazolyl)-2,5-diphenyl-2H-tetrazolium bromide (MTT) solution (5 mg/mL) were added to each well and the plates were incubated at 37 °C in a humidified 5% CO2 atmosphere for 4 h. At the end of the incubation period the medium was removed and the formazan product was dissolved in 150 μL of DMSO. The cell viability was evaluated by measurement of the absorbance at 490 nm, using an Absorbance Reader (BioRad). IC50 values (compound concentration that produces 50% of cell growth inhibition) were calculated from curves constructed by plotting cell survival inhibitory rate (%) versus drug concentration logarithm. All experiments were repeated in three times. The reading values were converted to the percentage of control (% cell survival). Cytotoxic effects were expressed as IC50 values.

HepG2 = experiment: MTT cytotoxicity assay; assay type: cell-based, human; details: 48 h drug exposure
Method: as §1, §2, §3

SGC-7901 = experiment: MTT cytotoxicity assay; assay type: cell-based, human; details: 48 h drug exposure
Method: as §1, §2, §3

A549 = experiment: MTT cytotoxicity assay; assay type: cell-based, human; details: 48 h drug exposure
Method: as §1
(§4) The effects of complex 3 on the viability of NSCLC cancer cells including A549 and NCI-H1299 were detected respectively via MTT assays at time points of 12, 24, 48 and 72 h (Figure 2A). The results shown that complex 3 could inhibit the viability of the NSCLC cells.
as §2, §3

NCI-H1299 = experiment: MTT cytotoxicity assay; assay type: cell-based, human
Method: as §1, §4, §2, §3

[1] = test system: L02 normal liver cell line; experiment: MTT cytotoxicity assay; assay type: cell-based; details: 48 h drug exposure
Method: as §1, §2, §3

A549 cells = experiment: Annexin V-FITC/PI apoptosis assay (flow cytometry); assay type: cell-based, human; details: A549, 50 μM for 24 h (figure legend and method: 10 μM)
Method: (§5) Apoptosis is a crucial programmed death form of aging or damaged cells. […] To further explore the impact of complex 3 on long-term clonogenic survival, colony formation assay was performed.
(§6) Annexin V-FITC apoptosis detection kit (Keygen, Jiangsu, China) assay was performed according to the manufacturer's protocol. […] Then the cells were collected, resuspended in binding buffer (pH 7.5, 10 mM HEPES, 2.5 mM CaCl2 and 140 mM NaCl), incubated with Annexin V-FITC and then PI for 10 min in the dark at room temperature, the processed cells were analyzed by flow cytometry (FACSCalibur, Becton Dickinson) and a computer station running Cell-Quest software. (BD Biosciences, Franklin Lakes, NJ).

NCI-H1299 cells = experiment: Annexin V-FITC/PI apoptosis assay (flow cytometry); assay type: cell-based, human; details: NCI-H1299, 50 μM for 24 h (figure legend and method: 10 μM)
Method: as §5, §6

p-mTOR = experiment: Western blot of PI3K/Akt/mTOR pathway; assay type: cell-based, human; details: A549, 10 μM, 24 h, relative to control
Description: The mammalian target of rapamycin (mTOR) kinase is used to regulate autophagy as controlled though oxidative stress, hypoxia and growth receptors. The phosphatidylinosital-3 kinase (PI3K)/Akt signaling pathway activates mTOR through phosphorylating and inactivating the tuberous sclerosis complex (TSC)1–TSC2 complex. Inhibition of mTOR results in activation of autophagy. […] At the same time, levels of the p-Akt protein decreased to 0.95-, 1.02-, and 0.39-folds, respectively (Figure 7B). […] As a results, the administration of complex 3 decreased levels of proteins in PI3K/Akt/mTOR signaling pathways.
Lysates were centrifuged at 12,000 g for 0.5 h at 4°C. The concentrations of total proteins were measured using the BCA assay method with Varioskan spectrofluorometer and spectrophotometer (Thermo, Waltham, MA) at 562 nm. Protein (20–100 μg) prepared from the indicated cells was loaded per lane and electrophoresed in 8% or 10% sodium dodecyl sulfate polyacrylamide gel electrophoresis (SDS-PAGE), and then transferred onto polyvinylidene difluoride (PVDF) Immobilon-P membrane (Bio-Rad, USA) using a transblot apparatus (Bio-Rad, USA). The membranes were blocked with 5% (w/v) non-fat milk at 0.5 h at 37°C, followed by overnight incubation at 4°C with primary antibodies diluted in PBST. After washing with PBST, the membranes were incubated for 1 h with an IRDye´800 conjugated secondary antibody diluted 1:20000 in PBST, and the labeled proteins were detected with an Odyssey Scanning System (Li-COR., Lincoln, Nebraska, USA).

Herring sperm DNA = experiment: DNA platination by EtBr fluorescence; details: 0.01 mg/mL DNA, pH 7.4, 37°C, 24 h
Method: The better cytotoxicity of complex 3 owing to the DNA platination could be detected in the presence of EtBr as a probe via fluorescent measurements, because their DNA platination could prevent the formation of EtBr-DNA complex, resulting in its stoichiometric loss of fluorescence.
Herring sperm DNA was dissolved in 10 mM phosphate buffer (pH 7.4) containing 10 mM NaClO4. The DNA concentration was determined by UV-vis spectra at 260 nm with an extinction coefficient of 6600 M^−1. The mixture of DNA with platinum complexes were incubated at 37°C in the dark. The fluorescence was measured in 0.4 M NaCl to avoid the second fixation site of EtBr to DNA. EtBr (0.04 mg/mL) was added to the 0.01 mg/mL DNA solution before the fluorescence measurement. Fluorescence spectra were recorded under following conditions: scan speed 2000 nm min^−1; excitation slit width was 5 nm and emission slit width was 10 nm. The excitation and emission wavelength was 530 nm and 592 nm, respectively.

pET28a plasmid DNA = experiment: Agarose gel electrophoresis of plasmid DNA; details: 0, 20, 80, 320, 640 μM
Method: The tested complexes were incubated with DNA at different concentrations.
Appropriate dilutions of tested complexes were made, and the required volumes of solutions were added to achieve a set of concentrations in the range of 0–100 mm; pET22b DNA (5 mL, 0.20 mg) was added to each tube, and the mixtures of platinum complexes and pET22b plasmid DNA were then incubated at 37°C for 6 or 24 h. Afterward, the agarose gel (made up to 1% w/v) containing ethidium bromide was prepared with TA buffer (50 mm Tris-acetate, pH 7.5). The mixtures with loading buffer (1 mL) underwent electrophores is in agarose gel in TA buffer at 100 V for 60 min. Bands were imaged using a Molecular Imager (Bio-Rad, USA) under UV light.

[2] = 48 h drug exposure, read-out: IC50 NCI-H1299

Compound | IC50 (HCT-116) [µM] | IC50 (HepG2) [µM] | IC50 (SGC-7901) [µM] | IC50 (A549) [µM] | IC50 (NCI-H1299; [2]) [µM] | IC50 [1] [µM] | early and median apoptotic cells (A549 cells) [%] | early and median apoptotic cells (NCI-H1299 cells) [%] | late apoptotic cells (NCI-H1299 cells) [%] | amounts of p-mTOR (p-mTOR) [folds] | DNA platination, change of EtBr fluorescent intensity (Herring sperm DNA) | gel electrophoretic mobility of plasmid DNA (pET28a plasmid DNA) | IC50 (NCI-H1299; 24 h, 2 to 128 μM, read-out: IC50 NCI-H1299 exposed for 24 h) [µM]
O=C1[O][Pt]2([NH][C@@H]3CCCC[C@H]3[NH]2)[O]C1=O [Oxaliplatin, oxaliplatin, reference compound] | 19.1 ± 1.89 | 16.6 ± 0.56 | 24.2 ± 0.35 | 112 ± 11.3 | 62.4 ± 2.35 | 42.9 ± 3.54 | 29.50 | 10.27 | 15.98 | 1.15 | a little loss of fluorescent intensity | a decrease in the rate of migration for closed circular DNA (Form I) | –
CC(C)C[NH+]1[C@@H]2CCCC[C@H]2[NH+](CC(C)C)[Pt-2]12[O]C(=O)CC(=O)[O]2 (stereo partly shown) [Complex 3] | 38.6 ± 2.67 | 52.9 ± 4.37 | 38.6 ± 2.49 | 14.2 ± 1.22 | 20.9 ± 1.36 | 82.6 ± 3.95 | 0.94 | 9.77 | 27.51 | 1.41 | more fluorescent intensity change compared to complex 3a | a strong unwinding of the supercoiled DNA | 7.42
